{
  "source": "patent US20030044946A1",
  "about": "(priority 2001, published 2003)",
  "key": {"[1]": {"system": "aconitase", "assay": "aconitase inactivation after treatment of yeast cells", "format": "cell-based, Saccharomyces cerevisiae", "conditions": "wild type cells; 1 μM antimycin A or 1 mM paraquat; data not shown", "description": "Cells were inoculated at an OD600 of 0.1 in SDC medium and harvested at the indicated times. Whole cell extracts were obtained by glass bead lysis under argon in 50 mM Tris 7.2, 150 mM NaCl, 5 mM EDTA, and 0.2 mM PMSF with an equal volume of 0.5 mm acid washed glass beads, and vortexing for 6 cycles of 30 seconds followed by 2 minutes of cooling. After centrifugation, the supernatants were aliquoted, flash frozen, and stored at −70° C. Because of the instability of 4Fe4S clusters in air, the extraction procedures were performed as rapidly as possible, under an inert atmosphere (argon). Furthermore, aliquots kept at −70° C. were only thawed immediately before the assay. Aconitase activity was measured spectrophotometrically as described (S. Melov, et al., Science 289, 1567-9 (2000)). Briefly, the linear absorbance change at 240 nm (cis-aconitate disappearance) was followed in a reaction mixture containing 1 mM cis-aconitate, 0.5 M NaCl, and 0.1 M Tris 7.4. For iron-sulfur cluster reactivation experiments, 1 mM ferric sulfate and 1 mM sodium sulfide (Na2S) was added to the cuvette containing all the reagents required for the aconitase assay. Activity was measured as described above."}, "[2]": {"system": "wild type cells (strain DBY746)"}, "[3]": {"system": "ras2Δ (EG252) cells", "conditions": "ras2 mutants; paraquat 1 mM, 7-day treatment"}, "[4]": {"system": "sod2Δ mutants"}},
  "note": "Read-outs that look alike come from different tables or passages of the source.",
  "data": [
    {"compound": "C[n+]1ccc(-c2cc[n+](C)cc2)cc1", "note": "[paraquat]", "values": [
      {"measurement": "effect on aconitase", "setting": "[1]", "value": "reversibly inactivates aconitase"},
      {"measurement": "effect on survival (viability) of wild type cells", "setting": "[2]", "value": "early viability loss"},
      {"measurement": "toxicity to wild type cells", "setting": "[2]", "value": "toxic"},
      {"measurement": "survival after paraquat treatment", "setting": "[2]; Saccharomyces cerevisiae", "value": 5, "unit": "%"},
      {"measurement": "initial viability retained after paraquat treatment", "setting": "[3]", "value": "over 70%"},
      {"measurement": "toxicity to sod2Δ mutants", "setting": "[4]; effect on life span", "value": "particularly toxic"}
    ]},
    {"compound": "antimycin A", "values": [
      {"measurement": "effect on aconitase", "setting": "[1]", "value": "reversibly inactivates aconitase"},
      {"measurement": "effect on survival (viability) of wild type cells", "setting": "[2]", "value": "early viability loss"},
      {"measurement": "toxicity to wild type cells", "setting": "[2]", "value": "toxic"},
      {"measurement": "toxicity to sod2Δ mutants", "setting": "[4]", "value": "particularly toxic"}
    ]}
  ]
}
